Measurements from patent US11834453B2, “Substituted pyrimido[5,4-d]pyrimidines as HER2 inhibitors” (Array BioPharma Inc., priority 2020, dated 2023).
pIC50: −log10 of the molar value.

Tests used:
EGFR wild type (EGFR WT) = EGFR wild type (EGFR WT) (Homo sapiens (Human), UniProt P00533); assay: Cellular phosphorylation assay, EGF-stimulated EGFR phosphorylation in engineered NIH 3T3 cells, Phospho-EGFR DuoSet IC ELISA, Assay 5; assay type: cell-based
Summary of the method: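 Phospho-EGFR ELISA on lysates of engineered NIH 3T3 EGFR WT cells, IC50 derived from concentration curves. Cells plated at 20,000/well overnight, given compound dilutions 1 h at 37 °C, then rEGF 100 ng/ml for a further 10 min before lysis.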

EGFR = EGFR (Homo sapiens (Human), UniProt P00533); assay: ErbB enzyme assay (CisBio HTRF KinEASE-TK), Assay 3; assay type: biochemical
Summary of the method: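 First, enzyme was reacted with compound, 1 mM ATP and 250 nM biotinylated tyrosine-kinase peptide for 30 min at 22 °C at pH 7.4. Next, streptavidin-XL665 and cryptate antibody were added for 1 h. Finally, HTRF ratios were converted to POC and fitted to yield IC50.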

ErbB2 WT = ErbB2 WT (Homo sapiens (Human), UniProt P04626); assay: ErbB enzyme assay (CisBio HTRF KinEASE-TK), Assay 2; assay type: biochemical
Summary of the method: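 Readout is HTRF KinEASE-TK, using Sa-XL665 and cryptate antibody for 1 h at 22 °C, as percent of control between DMSO-only (100) and pre-quenched (0) reactions. The kinase reaction runs 30 min at 22 °C with 1 mM ATP and 250 nM biotinylated TK substrate, in HEPES pH 7.4 with MgCl2 and 2% DMSO.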

MDR1 (P-gp) = MDR1 (P-gp) (Homo sapiens (Human), UniProt P08183); assay: MDR1 transfected MDCKII canine Mdr1 knockout permeability/efflux, Assay 7; conditions: dog, MDCK-MDR1
[1] = molecular target: ErbB2 insYVMA (HER2-YVMA, SEQ ID NO: 2) (Homo sapiens, UniProt P04626, INS775YVMA/P1170A); assay: biochemical; conditions: ErbB2 insYVMA enzyme assay; read-out: Assay 1 IC50
BCRP = BCRP (Homo sapiens (Human), UniProt Q9UNQ0); assay: BCRP transfected MDCKII canine Mdr1 knockout permeability/efflux, Assay 9; conditions: dog, Assay 9 Pe Ratio, efflux ratio Papp(B-A)/Papp(A-B), BCRP transfected MDCKII canine Mdr1 knockout
[2] = molecular target: ErbB2 with Exon 20 YVMA insertion (HER2-YVMA) (Homo sapiens (Human), UniProt P04626, INS775YVMA); assay: Cellular phosphorylation assay, constitutive ErbB2 phosphorylation (Y1196) in engineered NIH 3T3 cells, Assay 4; assay type: cell-based
Summary of the method: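 In-cell Western in NIH 3T3 cells carrying ErbB2 exon 20 YVMA insertion, with no ligand stimulation. One hour compound exposure at 37 °C before fixation and anti-pY1196 plus GAPDH staining with dual-wavelength fluorescence. IC50 derived after GAPDH normalization.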

BCRP, sequence (Q9UNQ0 whole entry): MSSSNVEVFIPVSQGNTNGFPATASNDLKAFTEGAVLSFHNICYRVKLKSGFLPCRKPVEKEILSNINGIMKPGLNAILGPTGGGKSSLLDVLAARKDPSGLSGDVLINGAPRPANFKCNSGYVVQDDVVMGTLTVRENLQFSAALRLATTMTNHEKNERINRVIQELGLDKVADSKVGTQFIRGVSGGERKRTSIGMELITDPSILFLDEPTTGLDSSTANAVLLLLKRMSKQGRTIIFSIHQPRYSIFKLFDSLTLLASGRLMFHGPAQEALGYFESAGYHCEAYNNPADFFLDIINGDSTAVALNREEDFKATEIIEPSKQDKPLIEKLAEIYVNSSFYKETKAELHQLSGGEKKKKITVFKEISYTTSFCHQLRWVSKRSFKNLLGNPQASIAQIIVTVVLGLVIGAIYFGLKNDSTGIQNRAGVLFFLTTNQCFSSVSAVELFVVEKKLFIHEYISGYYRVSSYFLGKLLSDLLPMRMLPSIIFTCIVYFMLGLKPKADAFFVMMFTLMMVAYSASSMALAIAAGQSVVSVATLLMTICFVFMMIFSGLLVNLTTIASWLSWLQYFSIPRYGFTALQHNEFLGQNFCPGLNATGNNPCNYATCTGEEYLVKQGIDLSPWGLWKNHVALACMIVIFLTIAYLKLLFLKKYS
MDR1 (P-gp), sequence (P08183 whole entry): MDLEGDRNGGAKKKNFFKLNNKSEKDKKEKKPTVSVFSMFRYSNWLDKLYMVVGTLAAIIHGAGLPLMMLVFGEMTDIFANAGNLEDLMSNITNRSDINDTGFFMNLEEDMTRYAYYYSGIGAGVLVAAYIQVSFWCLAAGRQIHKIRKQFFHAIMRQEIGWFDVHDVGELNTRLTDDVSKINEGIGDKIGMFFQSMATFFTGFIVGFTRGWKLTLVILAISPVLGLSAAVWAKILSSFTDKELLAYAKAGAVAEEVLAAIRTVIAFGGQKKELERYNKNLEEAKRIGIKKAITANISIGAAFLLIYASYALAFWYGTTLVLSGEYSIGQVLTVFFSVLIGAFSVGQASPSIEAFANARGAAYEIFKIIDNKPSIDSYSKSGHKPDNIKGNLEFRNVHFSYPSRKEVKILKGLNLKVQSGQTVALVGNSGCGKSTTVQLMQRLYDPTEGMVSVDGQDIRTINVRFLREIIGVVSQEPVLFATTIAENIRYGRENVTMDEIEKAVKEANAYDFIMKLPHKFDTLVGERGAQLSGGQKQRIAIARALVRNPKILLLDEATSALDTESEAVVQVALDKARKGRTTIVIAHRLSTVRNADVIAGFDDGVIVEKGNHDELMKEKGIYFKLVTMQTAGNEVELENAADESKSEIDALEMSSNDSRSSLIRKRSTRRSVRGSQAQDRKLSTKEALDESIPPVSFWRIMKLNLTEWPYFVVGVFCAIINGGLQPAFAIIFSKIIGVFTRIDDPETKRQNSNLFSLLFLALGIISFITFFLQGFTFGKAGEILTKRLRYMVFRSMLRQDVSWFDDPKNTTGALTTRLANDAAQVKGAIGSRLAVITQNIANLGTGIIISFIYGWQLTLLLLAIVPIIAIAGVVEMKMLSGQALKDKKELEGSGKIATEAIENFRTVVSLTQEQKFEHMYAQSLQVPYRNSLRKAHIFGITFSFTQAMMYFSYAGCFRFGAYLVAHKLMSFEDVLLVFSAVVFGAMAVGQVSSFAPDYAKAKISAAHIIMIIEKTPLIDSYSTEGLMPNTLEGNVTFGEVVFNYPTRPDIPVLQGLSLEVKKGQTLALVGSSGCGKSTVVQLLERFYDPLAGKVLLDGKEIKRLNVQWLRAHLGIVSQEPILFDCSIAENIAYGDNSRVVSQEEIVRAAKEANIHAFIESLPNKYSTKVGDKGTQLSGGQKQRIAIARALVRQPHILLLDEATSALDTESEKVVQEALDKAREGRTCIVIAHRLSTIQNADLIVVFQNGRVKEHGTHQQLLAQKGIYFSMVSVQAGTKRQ
ErbB2 WT, sequence (P04626 23-1255): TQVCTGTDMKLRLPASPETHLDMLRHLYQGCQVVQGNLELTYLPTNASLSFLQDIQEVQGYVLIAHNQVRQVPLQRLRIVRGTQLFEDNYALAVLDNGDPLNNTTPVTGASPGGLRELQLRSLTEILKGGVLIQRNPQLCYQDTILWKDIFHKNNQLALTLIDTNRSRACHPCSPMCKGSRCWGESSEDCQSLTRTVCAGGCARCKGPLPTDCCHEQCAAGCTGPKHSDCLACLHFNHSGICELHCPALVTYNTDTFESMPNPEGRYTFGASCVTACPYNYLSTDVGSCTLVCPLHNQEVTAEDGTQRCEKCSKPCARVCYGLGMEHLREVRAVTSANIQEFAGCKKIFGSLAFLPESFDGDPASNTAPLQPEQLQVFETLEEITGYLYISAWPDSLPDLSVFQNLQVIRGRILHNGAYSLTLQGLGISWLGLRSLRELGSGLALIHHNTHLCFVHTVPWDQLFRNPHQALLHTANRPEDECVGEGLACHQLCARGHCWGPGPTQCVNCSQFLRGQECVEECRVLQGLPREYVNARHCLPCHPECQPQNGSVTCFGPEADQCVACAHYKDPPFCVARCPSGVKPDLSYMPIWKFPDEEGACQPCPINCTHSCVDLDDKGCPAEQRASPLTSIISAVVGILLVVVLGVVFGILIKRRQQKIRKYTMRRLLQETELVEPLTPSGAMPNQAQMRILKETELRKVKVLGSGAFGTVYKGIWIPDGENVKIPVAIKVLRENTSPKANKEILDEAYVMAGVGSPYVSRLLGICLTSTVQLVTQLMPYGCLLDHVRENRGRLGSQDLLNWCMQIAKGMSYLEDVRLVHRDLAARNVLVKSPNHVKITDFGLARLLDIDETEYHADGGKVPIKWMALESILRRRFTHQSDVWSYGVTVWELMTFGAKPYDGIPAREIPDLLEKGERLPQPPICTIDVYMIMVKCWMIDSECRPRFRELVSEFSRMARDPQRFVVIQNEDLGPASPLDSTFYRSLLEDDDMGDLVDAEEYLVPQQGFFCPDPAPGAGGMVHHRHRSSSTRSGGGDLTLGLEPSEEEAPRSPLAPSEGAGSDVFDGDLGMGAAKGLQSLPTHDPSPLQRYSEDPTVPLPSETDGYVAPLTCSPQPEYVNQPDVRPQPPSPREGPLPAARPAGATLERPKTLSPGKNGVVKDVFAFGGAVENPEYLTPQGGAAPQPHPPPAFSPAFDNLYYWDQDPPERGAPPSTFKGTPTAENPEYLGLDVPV
ErbB2 insYVMA (HER2-YVMA, SEQ ID NO: 2), sequence (P04626 with tags, fused parts or gaps INS775YVMA/P1170A limits assumed): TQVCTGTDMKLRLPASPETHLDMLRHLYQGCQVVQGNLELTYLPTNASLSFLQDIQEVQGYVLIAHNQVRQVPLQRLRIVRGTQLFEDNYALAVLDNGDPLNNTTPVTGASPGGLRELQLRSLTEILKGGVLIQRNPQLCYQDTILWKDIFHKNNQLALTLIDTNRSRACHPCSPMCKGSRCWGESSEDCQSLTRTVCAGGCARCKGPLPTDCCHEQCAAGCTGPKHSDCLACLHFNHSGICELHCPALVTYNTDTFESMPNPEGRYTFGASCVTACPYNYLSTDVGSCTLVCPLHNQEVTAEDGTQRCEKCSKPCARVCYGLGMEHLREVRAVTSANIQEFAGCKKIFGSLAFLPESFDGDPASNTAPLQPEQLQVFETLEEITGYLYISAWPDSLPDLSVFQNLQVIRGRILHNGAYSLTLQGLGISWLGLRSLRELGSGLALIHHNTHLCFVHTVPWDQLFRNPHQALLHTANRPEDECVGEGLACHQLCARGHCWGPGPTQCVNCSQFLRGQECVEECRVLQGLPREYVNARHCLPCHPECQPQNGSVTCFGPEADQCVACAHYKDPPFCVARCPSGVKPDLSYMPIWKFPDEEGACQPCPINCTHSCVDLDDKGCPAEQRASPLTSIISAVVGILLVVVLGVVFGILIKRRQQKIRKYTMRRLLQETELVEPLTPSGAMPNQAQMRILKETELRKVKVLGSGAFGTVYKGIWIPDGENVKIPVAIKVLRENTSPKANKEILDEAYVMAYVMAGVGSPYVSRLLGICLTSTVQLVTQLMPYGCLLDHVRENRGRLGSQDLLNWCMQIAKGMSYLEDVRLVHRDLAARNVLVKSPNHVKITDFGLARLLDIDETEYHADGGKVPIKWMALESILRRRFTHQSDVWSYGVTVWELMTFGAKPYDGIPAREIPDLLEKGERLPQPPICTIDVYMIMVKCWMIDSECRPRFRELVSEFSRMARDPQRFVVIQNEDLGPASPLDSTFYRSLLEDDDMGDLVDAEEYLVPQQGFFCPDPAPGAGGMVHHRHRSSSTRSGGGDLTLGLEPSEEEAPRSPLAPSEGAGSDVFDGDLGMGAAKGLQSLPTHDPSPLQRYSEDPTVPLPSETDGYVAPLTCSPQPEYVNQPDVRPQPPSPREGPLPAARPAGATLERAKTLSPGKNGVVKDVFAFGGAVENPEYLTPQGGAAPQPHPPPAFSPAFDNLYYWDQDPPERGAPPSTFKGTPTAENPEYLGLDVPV

Question: With `Cc1cc(Nc2ncnc3cnc(N4CCN[C@H](C(F)(F)F)C4)nc23)ccc1Oc1ccc2c(c1)ncn2C` [Example 172, (S)—N-(3-methyl-4-((1-methyl-1H-benzo[d]imidazol-5-yl)oxy)phenyl)-6-(3-(trifluoromethyl)piperazin-1-yl)pyrimido[5,4-d]pyrimidin-4-amine] as the molecule, how does the pIC50 (EGFR wild type (EGFR WT)) read?
Answer: ≤ 5.30

Question: And the pIC50 (EGFR)?
Answer: 5.05

Question: And the pIC50 (ErbB2 WT)?
Answer: 7.45

Question: What about the efflux ratio at 2 h, 1 μM (MDR1 (P-gp)) of the same molecule?
Answer: 1.5

Question: What about the pIC50 [1] of the same molecule?
Answer: 7.51

Question: And the efflux ratio at 2 h, 1 μM (BCRP)?
Answer: 2

Question: What about the pIC50 [2] of the same molecule?
Answer: 7.58

Question: `Cc1cc(Nc2ncnc3cnc(N4CC[C@H](C#N)C4)nc23)ccc1Oc1ccc2c(c1)ncn2C` [Example 173, (S)-1-(8-((3-methyl-4-((1-methyl-1H-benzo[d]imidazol-5-yl)oxy)phenyl)amino)pyrimido[5,4-d]pyrimidin-2-yl)pyrrolidine-3-carbonitrile] was tested. Which pIC50 (EGFR wild type (EGFR WT)) did it give?
Answer: ≤ 5.30

Question: And the pIC50 (EGFR)?
Answer: ≤ 5.00

Question: And the pIC50 (ErbB2 WT)?
Answer: 7.30

Question: What about the efflux ratio at 2 h, 1 μM (MDR1 (P-gp)) of the same molecule?
Answer: 1.2

Question: And the pIC50 [1]?
Answer: 7.66

Question: And the efflux ratio at 2 h, 1 μM (BCRP)?
Answer: 4.3

Question: And the pIC50 [2]?
Answer: 7.65

Question: With `Cc1cc(Nc2ncnc3cnc(N(C)C4COC4)nc23)ccc1Oc1ccc2c(c1)ncn2C` [Example 175, N2-methyl-N8-(3-methyl-4-((1-methyl-1H-benzo[d]imidazol-5-yl)oxy)phenyl)-N2-(oxetan-3-yl)pyrimido[5,4-d]pyrimidine-2,8-diamine] as the molecule, how does the pIC50 (EGFR wild type (EGFR WT)) read?
Answer: ≤ 5.30

Question: And the pIC50 (EGFR)?
Answer: 5.19

Question: What about the pIC50 (ErbB2 WT) of the same molecule?
Answer: 8.20

Question: And the efflux ratio at 2 h, 1 μM (MDR1 (P-gp))?
Answer: 1.4

Question: What about the pIC50 [1] of the same molecule?
Answer: 8.38

Question: What about the efflux ratio at 2 h, 1 μM (BCRP) of the same molecule?
Answer: 1.5

Question: And the pIC50 [2]?
Answer: 7.86

Question: How did the pIC50 (EGFR wild type (EGFR WT)) turn out when `Cc1cc(Nc2ncnc3cnc(N(C)[C@H]4CCC[C@@H]4O)nc23)ccc1Oc1ccc2c(c1)ncn2C` [Example 176, (1S,2S)-2-(methyl(8-((3-methyl-4-((1-methyl-1H-benzo[d]imidazol-5-yl)oxy)phenyl)amino)pyrimido[5,4-d]pyrimidin-2-yl)amino)cyclopentan-1-ol] was run?
Answer: ≤ 5.30

Question: And the pIC50 (EGFR)?
Answer: 5.90

Question: And the pIC50 (ErbB2 WT)?
Answer: 7.51

Question: What about the efflux ratio at 2 h, 1 μM (MDR1 (P-gp)) of the same molecule?
Answer: 1.4

Question: And the pIC50 [1]?
Answer: 7.49

Question: And the efflux ratio at 2 h, 1 μM (BCRP)?
Answer: 13.5

Question: What about the pIC50 [2] of the same molecule?
Answer: 7.60

Question: How did the pIC50 (EGFR wild type (EGFR WT)) turn out when `Cc1cc(Nc2ncnc3cnc(N4CC[C@](C)(O)C4)nc23)ccc1Oc1ccc2c(c1)ncn2C` [Example 179, (S)-3-methyl-1-(8-((3-methyl-4-((1-methyl-1H-benzo[d]imidazol-5-yl)oxy)phenyl)amino)pyrimido[5,4-d]pyrimidin-2-yl)pyrrolidin-3-ol] was run?
Answer: ≤ 5.30

Question: And the pIC50 (EGFR)?
Answer: 5.42

Question: What about the pIC50 (ErbB2 WT) of the same molecule?
Answer: 7.89

Question: What about the efflux ratio at 2 h, 1 μM (MDR1 (P-gp)) of the same molecule?
Answer: 1.9

Question: And the pIC50 [1]?
Answer: 8.00

Question: And the efflux ratio at 2 h, 1 μM (BCRP)?
Answer: 15.3

Question: And the pIC50 [2]?
Answer: 7.55

Question: `Cc1cc(Nc2ncnc3cnc(N4CCN5CCOC[C@H]5C4)nc23)ccc1Oc1ccc2c(c1)ncn2C` [Example 180, (R)-6-(hexahydropyrazino[2,1-c][1,4]oxazin-8(1H)-yl)-N-(3-methyl-4-((1-methyl-1H-benzo[d]imidazol-5-yl)oxy)phenyl)pyrimido[5,4-d]pyrimidin-4-amine] was tested. Which pIC50 (EGFR wild type (EGFR WT)) did it give?
Answer: ≤ 5.30

Question: What about the pIC50 (EGFR) of the same molecule?
Answer: 5.34

Question: What about the pIC50 (ErbB2 WT) of the same molecule?
Answer: 7.68

Question: What about the efflux ratio at 2 h, 1 μM (MDR1 (P-gp)) of the same molecule?
Answer: 1.3

Question: And the pIC50 [1]?
Answer: 7.88

Question: And the efflux ratio at 2 h, 1 μM (BCRP)?
Answer: 2.7

Question: And the pIC50 [2]?
Answer: 7.81

Question: Which results are given for `Cc1cc(Nc2ncnc3cnc(N4CCN[C@@H](C(F)(F)F)C4)nc23)ccc1Oc1ccc2c(c1)ncn2C` [Example 182, (R)—N-(3-methyl-4-((1-methyl-1H-benzo[d]imidazol-5-yl)oxy)phenyl)-6-(3-(trifluoromethyl)piperazin-1-yl)pyrimido[5,4-d]pyrimidin-4-amine]?
Answer: pIC50 (EGFR wild type (EGFR WT)): ≤ 5.30; pIC50 (EGFR): 5.50; pIC50 (ErbB2 WT): 7.46; efflux ratio at 2 h, 1 μM (MDR1 (P-gp)): 1.3; pIC50 [1]: 7.53; efflux ratio at 2 h, 1 μM (BCRP): 1.9; pIC50 [2]: 7.75

Question: Which results are given for `Cc1cc(Nc2ncnc3cnc(N(C)[C@H]4C[C@@H](O)C4)nc23)ccc1Oc1ccc2c(c1)ncn2C` [Example 183]?
Answer: pIC50 (EGFR wild type (EGFR WT)): ≤ 5.30; pIC50 (EGFR): 5.98; pIC50 (ErbB2 WT): 8.24; efflux ratio at 2 h, 1 μM (MDR1 (P-gp)): 1.7; pIC50 [1]: 8.36; efflux ratio at 2 h, 1 μM (BCRP): 19.5; pIC50 [2]: 8.29
